One series is described as follows: Plasma compatibility. The format is physicochemical. As to the method: The plasma compatibility of exemplary peptidomimetic macrocycles was also determined. Peptidomimetic macrocycles with a plasma compatability value (PC) that is greater than 0.1 were determined as being plasma compatible.
Series [1] addresses T1, human GHRH receptor (hGHRHR) (Homo sapiens, UniProt Q02643).
T1 construct: expressed in transfected cells; host or cells: Human 293 cells
T1 sequence (Q02643 23-423): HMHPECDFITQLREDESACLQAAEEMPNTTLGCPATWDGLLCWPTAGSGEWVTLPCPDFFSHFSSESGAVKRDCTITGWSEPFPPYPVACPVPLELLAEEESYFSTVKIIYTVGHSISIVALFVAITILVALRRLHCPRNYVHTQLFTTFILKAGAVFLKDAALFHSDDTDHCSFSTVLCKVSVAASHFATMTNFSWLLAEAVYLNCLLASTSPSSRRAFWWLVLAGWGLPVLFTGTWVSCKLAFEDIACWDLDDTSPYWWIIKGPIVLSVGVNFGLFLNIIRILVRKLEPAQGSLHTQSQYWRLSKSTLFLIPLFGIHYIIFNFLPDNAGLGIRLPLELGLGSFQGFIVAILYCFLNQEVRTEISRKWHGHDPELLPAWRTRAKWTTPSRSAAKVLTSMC
Put plainly: GHRHR agonism measured by cAMP (HTRF) in human 293 cells expressing hGHRHR.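 Further: receptor expressed transiently or stably, cells stimulated in serum-free medium, EC50 from a non-linear dose-response fit, maximal response defined by reference GHRH stimulation.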 Format: cell-based. The settings on record: 30 min at RT. In general terms: TR-FRET usually uses a lanthanide donor and a delayed reading to cut background.
Description: GHRH (1-29) and cross-linked peptidomimetic macrocycles were tested for agonism at the human GHRH receptor (hGHRHR) at various concentrations. Human 293 cells transiently or stably expressing hGHRHR were detached from cell culture flasks with versene (Life Technologies™), suspended in serum-free medium (50 k cells/assay point), and stimulated for 30 min at RT with GHRH (1-29) (Bachem™) or cross-linked peptidomimetic macrocycles. cAMP was quantified using an HTRF®-based assay (CisBio) and used according to the manufacturer's instructions. An EC50 for each agonist was calculated from a non-linear fit of response vs dose (GraphPad™ Prism). The maximum response was determined by stimulating with 10 μM GHRH (1-29). (+=>50 nm; ++=>25-50 nm; +++=>10-25 nm; ++++=>1-10 nm; +++++=≤1 nm).

The nature of series [2]: Plasma PK/PD study in rats. The format is in vivo, rat. The settings on record: male Sprague-Dawley rats; for MRT / clearance / Vd / half-life / AUC(0-inf): rat, 3 mg/kg; for clearance: read-out: Clp (converted); for Vd: read-out: Vdss; for half-life: read-out: t ½ (converted); for AUC(0-inf): route not given. Here is the method: Five peptidomimetic macrocycles of the invention, as well as sermorelin, were studied to determine pharmacokinetic and pharmacodynamic parameters in rats. Male Sprague-Dawley rats (300 g, non-fasted, cannulated) were used. The study had three arms: IV administration, SC administration, and SC administration (vehicle control). For experiments using sermorelin, a dose level of 3 mg/kg IV/SC bolus was used (dose volume of […] dose and dose concentration of 1 mg/mL). The vehicle used was: 10 wt % N, N-Dimethylacetamide, 10 wt % DMSO, 2 wt % Solutol HS 15 in water for injection containing 45 mg/mL (4.5 wt %) Mannitol and 25 mM (0.38 wt %) Histidine (pH 7.5; 320 mOsm/kg). The peptide was first dissolved at high concentration in DMA and DMSO before a second dilution in Solutol vehicle.
For experiments using peptidomimetic macrocycles, 0.1 mL of DMA and 0.1 mL of DMSO were used to combine with each mg of macrocycle (˜4.3-4.5 mg of macrocycle used in each experiment). Sonication was used to ensure complete solubilization. 0.8 mL of Solutol vehicle was used for each mg of macrocycle in DMA/DMSO. The solutions were mixed gently with pipet or light vortexing. Fresh vials were used for each day of dosing, and macrocycles were stored solid at −20° C. prior to formulation.
For each study arm, 2 rats were bled (350 μL) at specific time points (5 min, 15 min, 30 min, 1 h, 2 h, 4 h, 8 h, 24 h, and 48 h) and a 150 μL bleed was performed just before dosing. Plasma was prepared into K2EDTA tubes by centrifuging for 20 minutes at 4° C. at 2000G maximum 30 minutes after collection. From each 350 μL bleed, 120 μL were transferred to one tube for PK studies and 50 μL to another tube for PD studies and frozen immediately. From the 150 μL bleed, 70 μL were transferred to one tube for PD studies and frozen immediately.

Molecules are shown by their SMILES. pEC50: −log10 of the molar value. Where a SMILES comes first, the peptide text is derived from it. Bridges are numbered along the chain shown (N, C = ends). [ ]: non-standard residue; d: D form. NMeY = CN[C@@H](Cc1ccc(O)cc1)C(=O)O; R8 = C=CCCCCCC[C@@](C)(N)C(=O)O; S5 = C=CCCC[C@](C)(N)C(=O)O; Nle = CCCC[C@H](N)C(=O)O

Consider `CCCC[C@H](NC(=O)[C@@H](NC(=O)[C@H](CC(=O)O)NC(=O)[C@H](CCC(N)=O)NC(=O)[C@H](CC(C)C)NC(=O)[C@H](C)NC(=O)[C@H](CCCCN)NC(=O)[C@H](CCCNC(=N)N)NC(=O)[C@H](C)NC(=O)[C@H](CO)NC(=O)[C@]1(C)CCCC=CCCC[C@](C)(NC(=O)[C@H](CCCCN)NC(=O)[C@H](CCCNC(=N)N)NC(=O)[C@H](Cc2ccc(O)cc2)NC(=O)[C@H](CO)NC(=O)[C@H](CCC(N)=O)NC(=O)[C@@H](NC(=O)[C@H](Cc2ccccc2)NC(=O)[C@@H](NC(=O)[C@H](C)NC(=O)[C@H](CC(=O)O)NC(=O)[C@@H](C)NC(=O)[C@@H](N)Cc2ccc(O)cc2)[C@@H](C)CC)[C@@H](C)O)C(=O)N[C@@H](CC(C)C)C(=O)N[C@@H](C)C(=O)N[C@@H](CCC(N)=O)C(=O)N1)[C@@H](C)CC)C(=O)N[C@@H](CO)C(=O)N[C@@H](CCCNC(=N)N)C(N)=O` (single isomer, unassigned) [SP-107], for which, in “Plasma compatibility”, the “Plasma Compatability” value is reported as 1.6 mg/mL.
On the same count and under the same terms, to `CCCC[C@H](NC(=O)[C@@H](NC(=O)[C@H](CC(=O)O)NC(=O)[C@H](CCC(N)=O)NC(=O)[C@H](CC(C)C)NC(=O)[C@H](C)NC(=O)[C@H](CCCCN)NC(=O)[C@H](CCCNC(=N)N)NC(=O)[C@H](C)NC(=O)[C@H](CO)NC(=O)[C@]1(C)CCCC=CCCC[C@](C)(NC(=O)[C@H](CCCCN)NC(=O)[C@H](CCCNC(=N)N)NC(=O)[C@H](Cc2ccc(O)cc2)NC(=O)[C@H](CO)NC(=O)[C@H](CCC(N)=O)NC(=O)[C@@H](NC(=O)[C@H](Cc2ccccc2)NC(=O)[C@@H](NC(=O)[C@H](C)NC(=O)[C@H](CC(=O)O)NC(=O)[C@@H](C)NC(=O)[C@@H](N)Cc2ccc(O)cc2)[C@@H](C)CC)[C@@H](C)O)C(=O)N[C@@H](CC(C)C)C(=O)N[C@@H](C)C(=O)N[C@@H](CCC(N)=O)C(=O)N1)[C@@H](C)CC)C(=O)N[C@@H](CO)C(=O)N[C@@H](CCCNC(=N)N)C(N)=O` (single isomer, unassigned) [SP-108] belongs 1.6 mg/mL.
Take `CCCC[C@H](NC(=O)[C@@H](NC(=O)[C@H](CC(=O)O)NC(=O)[C@H](CCC(N)=O)NC(=O)[C@H](CC(C)C)NC(=O)[C@H](C)NC(=O)[C@H](CCCCN)NC(=O)[C@H](CCCNC(=N)N)NC(=O)[C@H](C)NC(=O)[C@H](CO)NC(=O)[C@H](CC(C)C)NC(=O)[C@H](CCC(N)=O)NC(=O)[C@H](C)NC(=O)[C@H](CC(C)C)NC(=O)[C@@H](NC(=O)[C@H](CCCCN)NC(=O)[C@H](CCCNC(=N)N)NC(=O)[C@H](Cc1ccc(O)cc1)NC(=O)[C@H](CO)NC(=O)[C@H](C)NC(=O)[C@@H](NC(=O)[C@H](Cc1ccccc1)NC(=O)[C@@H](NC(=O)[C@]1(C)CCCC=CCCC[C@](C)(N)C(=O)N[C@@H](Cc2ccc(O)cc2)C(=O)N[C@@H](C)C(=O)N[C@@H](CC(=O)O)C(=O)N1)[C@@H](C)CC)[C@@H](C)O)C(C)C)[C@@H](C)CC)C(=O)N[C@@H](CO)C(=O)N[C@@H](CCCNC(=N)N)C(N)=O` [SP-6] (H-[S5]YAD[S5]IFTASYRKVLAQLSARKALQDI[Nle]SR-NH2; staple 1-5): in series [1], the pEC50 is 7.30 to 7.60. Further, in series [2], the “AUC Ext (%)” value stood at 16.3%, the MRT is 3.7 h, the clearance was 2.13 mL/min/kg and the Vd turned out to be 0.474 L/kg. Besides, in series [2], the half-life is 1240 min and the AUC(0-inf) amounted to 23500 ng·h/mL.
For `CCCC[C@@H]1NC(=O)[C@H]([C@@H](C)CC)NC(=O)[C@H](CC(=O)O)NC(=O)[C@@](C)(NC(=O)[C@H](CC(C)C)NC(=O)[C@H](C)NC(=O)[C@H](CCCCN)NC(=O)[C@H](CCCNC(=N)N)NC(=O)[C@H](C)NC(=O)[C@H](CO)NC(=O)[C@H](CC(C)C)NC(=O)[C@H](CCC(N)=O)NC(=O)[C@H](C)NC(=O)[C@H](CC(C)C)NC(=O)[C@@H](NC(=O)[C@H](CCCCN)NC(=O)[C@H](CCCNC(=N)N)NC(=O)[C@H](Cc2ccc(O)cc2)NC(=O)[C@H](CO)NC(=O)[C@H](C)NC(=O)[C@@H](NC(=O)[C@H](Cc2ccccc2)NC(=O)[C@@H](NC(=O)[C@H](C)NC(=O)[C@H](CC(=O)O)NC(=O)[C@H](C)NC(=O)[C@H](Cc2ccc(O)cc2)NC)[C@@H](C)CC)[C@@H](C)O)C(C)C)CCCC=CCCC[C@@](C)(C(=O)N[C@@H](CCCNC(=N)N)C(N)=O)NC1=O` [SP-21] (H-[NMeY]ADAIFTASYRKVLAQLSARKAL[S5]DI[Nle][S5]R-NH2; staple 24-28; N-terminus and C-terminus assumed), in series [2], the “AUC Ext (%)” value is listed as 9.4%, the MRT was determined as 5.3 h, the clearance is 1.65 mL/min/kg and the Vd was 0.524 L/kg. Further, in series [2], the half-life was 606 min and the AUC(0-inf) came to 30500 ng·h/mL.
With `CCCC[C@@H]1NC(=O)[C@H]([C@@H](C)CC)NC(=O)[C@H](CC(=O)O)NC(=O)[C@H](CCC(N)=O)NC(=O)[C@H](CC(C)C)NC(=O)[C@H](C)NC(=O)[C@](C)(NC(=O)[C@H](CCCNC(=N)N)NC(=O)[C@H](C)NC(=O)[C@H](CO)NC(=O)[C@H](CC(C)C)NC(=O)[C@H](CCC(N)=O)NC(=O)[C@H](C)NC(=O)[C@H](CC(C)C)NC(=O)[C@@H](NC(=O)[C@H](CCCCN)NC(=O)[C@H](CCCNC(=N)N)NC(=O)[C@H](Cc2ccc(O)cc2)NC(=O)[C@H](CO)NC(=O)[C@H](C)NC(=O)[C@@H](NC(=O)[C@H](Cc2ccccc2)NC(=O)[C@@H](NC(=O)[C@H](C)NC(=O)[C@H](CC(=O)O)NC(=O)[C@H](C)NC(=O)[C@H](Cc2ccc(O)cc2)NC)[C@@H](C)CC)[C@@H](C)O)C(C)C)CCCCCCC=CCCC[C@@](C)(C(=O)N[C@@H](CCCNC(=N)N)C(N)=O)NC1=O` [SP-32] (H-[NMeY]ADAIFTASYRKVLAQLSAR[R8]ALQDI[Nle][S5]R-NH2; staple 21-28; N-terminus and C-terminus assumed), in series [2], the “AUC Ext (%)” value worked out at 3.0%, the MRT was determined as 2.3 h, the clearance was 1.35 mL/min/kg and the Vd was 0.19 L/kg. Moreover, in series [2], the half-life was 582 min and the AUC(0-inf) worked out at 37000 ng·h/mL.
For `CCCC[C@H](NC(=O)[C@@H](NC(=O)[C@H](CC(=O)O)NC(=O)[C@H](CCC(N)=O)NC(=O)[C@H](CC(C)C)NC(=O)[C@H](C)NC(=O)[C@H](CCCCN)NC(=O)[C@H](CCCNC(=N)N)NC(=O)[C@H](C)NC(=O)[C@H](CO)NC(=O)[C@]1(C)CCCC=CCCC[C@](C)(NC(=O)[C@H](CCCCN)NC(=O)[C@H](CCCNC(=N)N)NC(=O)[C@H](Cc2ccc(O)cc2)NC(=O)[C@H](CO)NC(=O)[C@H](CCC(N)=O)NC(=O)[C@@H](NC(=O)[C@H](Cc2ccccc2)NC(=O)[C@@H](NC(=O)[C@H](C)NC(=O)[C@H](CC(=O)O)NC(=O)[C@@H](C)NC(=O)[C@@H](N)Cc2ccc(O)cc2)[C@@H](C)CC)[C@@H](C)O)C(=O)N[C@@H](CC(C)C)C(=O)N[C@@H](C)C(=O)N[C@@H](C)C(=O)N1)[C@@H](C)CC)C(=O)N[C@@H](CO)C(=O)N[C@@H](CCCNC(=N)N)C(N)=O` [SP-104] (H-Y[dA]DAIFTQSYRK[S5]LAA[S5]SARKALQDI[Nle]SR-NH2; staple 13-17), the “Plasma Compatability” value in the series “Plasma compatibility” is recorded as 1.2 mg/mL.

In general, pEC50 refers to the EC50 on a negative log10 scale, so that one unit is a factor of ten. One may read the MRT as the average time that molecules of a dose stay in the body. In general, AUC(0-inf) refers to the area under the concentration-time curve extrapolated to infinity. Low readings indicate low exposure, high ones high exposure.

The record behind these values is patent US20180371044A1, “PEPTIDOMIMETIC MACROCYCLES” (Aileron Therapeutics, Inc., priority 2015, published 2018).
